Data on three compounds can be found in patent publication US20030171400A1, “Heterocyclic side chain containing metalloprotease inhibitors” (priority 2000, published 2003).

Holding throughout (format): in vivo
Assay [1] concerns human subject suffering from osteoarthritis. The assay is described as follows: Example B: capsule treatment of a subject suffering from osteoarthritis. The settings on record: capsule containing 70 mg daily for 5 years, 90 kg human. As to the method:
A capsule for oral administration, according to the present invention, is made comprising:
A human subject weighing 90 kg (198 lbs.), suffering from osteoarthritis, is treated by a method of this invention. Specifically, for 5 years, a capsule containing 70 mg of the compound of Example 3 is administered daily to said subject.

In assay [2] the test system is human subject suffering from rheumatoid arthritis. The assay is described as follows: Example A: tablet treatment of a subject suffering from rheumatoid arthritis. The conditions noted are these: tablet with 15 mg compound, three tablets per day orally for 2 years, 60 kg human. As to the method: A tablet composition for oral administration, according to the present invention, is made comprising:
A human subject weighing 60 kg (132 lbs), suffering from rheumatoid arthritis, is treated by a method of this invention. Specifically, for 2 years, a regimen of three tablets per day is administered orally to said subject.

Assay [3] relates to asthma sufferer. In words: Example E: inhalation aerosol for asthma. The conditions noted are these: 5.0% w/v inhalation aerosol, 0.01 mL sprayed into the mouth while inhaling. As for the experimental part: An inhalation aerosol composition, according to the present invention, is made comprising: An asthma sufferer sprays 0.01 mL via a pump actuator into the mouth while inhaling.

As to `CC(C)(C)OC(=O)N1CCC(C(NS(=O)(=O)c2ccc(Oc3ccccc3)cc2)C(=O)O)CC1` (stereo not drawn) [Example 3, 4-[Carboxy-(4-phenoxy-benzenesulfonylamino)-methyl]-piperidine-1-carboxylic acid tert-butyl ester], the “erosion/fibrillation of the articular cartilage via x-ray, arthroscopy and/or MRI at the end of treatment” value in assay [1] is on record as “no further advancement of erosion/fibrillation of the articular cartilage”. As for `COCCOC(=O)N1CCC(C(NS(=O)(=O)c2ccc(-c3ccc(OC)cc3)cc2)C(=O)O)CC1` (stereo not drawn) [Example 31, 4-[Carboxy-(4′-methoxy-biphenyl-4-sulfonylamino)-methyl]-piperidine-1-carboxylic acid 2-methoxy-ethyl ester], in assay [2], the “patient examination at the end of the treatment period (inflammation, mobility, pain)” value is “reduced inflammation, and improved mobility without concomitant pain”. Consider `COc1ccc(-c2ccc(S(=O)(=O)NC3(C(=O)O)CCNCC3)cc2)cc1` [Example 56, 4-(4′-Methoxy-biphenyl-4-sulfonylamino)-piperidine-4-carboxylic acid], for which the asthma symptoms result in assay [3] was “Asthma symptoms are diminished”.
